The values that follow come from ChEMBL document CHEMBL1201862, “PubChem BioAssay data set” (2004).

Molecules are shown by their SMILES.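 How tested: cells in 96-well plates exposed to compound for 48 hours at five concentrations. GI50 = concentration required for 50% inhibition of growth.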 Activity calls are given as the source filed them. Cut-off read from the data, not from the text of the source: active = GI50 up to about 1.1 µM and inactive = higher. Bounds are passed on as bounds.

Some test systems named below: MDA-MB-435; MDA-N; SK-MEL-28; OVCAR-3; SN12C; RXF 393; M19-MEL; PC-3; HL-60; UO-31; SK-OV-3; COLO 205; Hs-578T; DMS-114; DMS-273; BT-549; SR; ACHN; SNB-78; T47D.
Experiment in all cases: inhibition of tumour cell growth, NCI panel, 48 h

As for `COc1cc(C(=O)c2cocc2C(=O)c2ccc3c(c2)OCO3)cc(OC)c1OC`, the GI50 in the assay on MDA-MB-435 was 0.0916 µM (active); with MDA-N it was 0.0468 µM (active); in the assay with SK-MEL-28, 1.46 µM (inactive); in the assay with OVCAR-3, 0.304 µM (active); in the assay on SN12C, 1.49 µM (inactive); in the assay with RXF 393, 0.67 µM (active). In addition, the GI50 with M19-MEL is 2.96 µM (inactive); in the assay with PC-3 it was 0.355 µM (active); in the assay on HL-60, 0.0946 µM (active); with UO-31, 1.58 µM (inactive); with SK-OV-3 it was 2.49 µM (inactive); in the assay with COLO 205, 4.91 µM (inactive). The GI50 was 0.274 µM (active) in the assay with Hs-578T; 0.753 µM (active) in the assay on DMS-114; 0.729 µM (active) in the assay with DMS-273; 0.149 µM (active) in the assay with BT-549; 0.611 µM (active) with SR; 0.977 µM (active) with ACHN.
For `O=c1[nH]c(=O)n(C2CC(O)C(CO)O2)cc1C#Cc1c(F)c(F)c(F)c(F)c1F` (stereo not drawn), the GI50 in the assay on SK-MEL-28, in the assay on OVCAR-3, in the assay on SN12C, in the assay with M19-MEL, with UO-31 and with SK-OV-3 was > 100 µM (inactive) throughout. Further, the GI50 in the assay with COLO 205, in the assay on DMS-114, in the assay on DMS-273, in the assay with SR and in the assay with ACHN was > 100 µM (inactive) in each case.
Turning to `COc1nc2c(OC)cccc2c(OC)c1C=O`, the GI50 in the assay on SK-MEL-28, in the assay with OVCAR-3, in the assay with SN12C, with RXF 393, with M19-MEL and in the assay on HL-60 was > 100 µM (inactive) in each case. In addition, the GI50 in the assay with UO-31, in the assay on SK-OV-3, with COLO 205, in the assay with DMS-114, with DMS-273 and in the assay on ACHN was > 100 µM (inactive) each time.
Consider `CC(C)(C)CC(C)(C)c1cc2c(O)c(c1)Cc1cc(C(C)(C)CC(C)(C)C)cc(c1O)Cc1cc(C(C)(C)CC(C)(C)C)cc(c1O)Cc1cc(C(C)(C)CC(C)(C)C)cc(c1O)Cc1cc(C(C)(C)CC(C)(C)C)cc(c1O)C2`, for which the GI50 with SK-MEL-28, with OVCAR-3, with SN12C, in the assay on RXF 393, with SNB-78 and in the assay with M19-MEL was > 100 µM (inactive) each time. Also, the GI50 in the assay with HL-60, in the assay on UO-31, in the assay on COLO 205, in the assay on DMS-114, in the assay with DMS-273 and in the assay on ACHN was > 100 µM (inactive) in each case.
As for `CN(C)C=C1C(Cl)=C(C=O)CC(C=O)=C1Cl`, the GI50 in the assay on SK-MEL-28 was 6.59 µM (inactive); in the assay on OVCAR-3, 13.5 µM (inactive); in the assay on SN12C, > 100 µM (inactive); in the assay with RXF 393 it was 6.21 µM (inactive); with M19-MEL, 11.4 µM (inactive); in the assay on HL-60, 1.77 µM (inactive). The GI50 in the assay with UO-31 was 17.7 µM (inactive); in the assay with SK-OV-3, 29.4 µM (inactive); with COLO 205, 15.6 µM (inactive); in the assay with DMS-114, 11.2 µM (inactive); in the assay on DMS-273 it was 11 µM (inactive); in the assay on ACHN, 12.9 µM (inactive).
As for `CCN(CC)c1ccc(/N=N/c2ccc(-c3nc4cccnc4o3)cc2)cc1`, the GI50 in the assay on SK-MEL-28, in the assay with OVCAR-3, in the assay with SN12C, in the assay with RXF 393, in the assay with SNB-78 and with M19-MEL was > 100 µM (inactive) in each case. Further, the GI50 in the assay with HL-60, in the assay with UO-31, in the assay on COLO 205, in the assay with DMS-114, in the assay on DMS-273 and with ACHN was > 100 µM (inactive) in each case.
For `COC(=O)/C(=N/O)C(C(=O)C=C(C)C)C(=O)C(=O)Nc1nc2ccc([N+](=O)[O-])cc2s1` (stereo not drawn), the GI50 with SK-MEL-28 is 58.7 µM (inactive); in the assay with OVCAR-3, 21.5 µM (inactive); in the assay with SN12C, 32.2 µM (inactive); in the assay on SNB-78 it was 27.7 µM (inactive); in the assay with M19-MEL, > 100 µM (inactive); in the assay on HL-60, 38.2 µM (inactive). In addition, the GI50 with UO-31 was 26.8 µM (inactive); in the assay on SK-OV-3 it was 24.8 µM (inactive); in the assay on COLO 205 it was 41.6 µM (inactive); with DMS-273 it was 45.4 µM (inactive); in the assay on SR it was 38.1 µM (inactive); in the assay on ACHN, 24.4 µM (inactive).
For the compound `O=c1[nH]c(=O)n(C2OC(CO)C(O)C(O)C2O)cc1F` (stereo not drawn), the GI50 in the assay on MDA-MB-435 was > 100 µM (inactive); in the assay on MDA-N, > 100 µM (inactive); with SK-MEL-28, > 100 µM (inactive); in the assay with OVCAR-3, > 100 µM (inactive); with SN12C it was > 100 µM (inactive); in the assay with RXF 393, > 76.2 µM (inactive). Moreover, the GI50 in the assay with SNB-78 was > 100 µM (inactive); in the assay on M19-MEL, > 100 µM (inactive); in the assay with PC-3 it was > 100 µM (inactive); with HL-60 it was > 64.4 µM (inactive); in the assay on UO-31 it was > 100 µM (inactive); in the assay on SK-OV-3, > 100 µM (inactive). For the same compound, the GI50 in the assay with COLO 205, in the assay on Hs-578T, in the assay on T47D, in the assay with DMS-114, with BT-549 and in the assay on SR was > 100 µM (inactive) throughout. In the assay with ACHN, the GI50 was > 100 µM (inactive).
Take `COC12OCCN(C)C1=CC(=O)C1N=NCC12` (stereo not drawn): the GI50 with SK-MEL-28, in the assay on OVCAR-3, in the assay on SN12C, in the assay on RXF 393, in the assay with SNB-78 and in the assay with M19-MEL was > 100 µM (inactive) in each case. Moreover, the GI50 in the assay on HL-60, with UO-31, in the assay with SK-OV-3, in the assay with COLO 205, in the assay with DMS-114 and in the assay with DMS-273 was > 100 µM (inactive) throughout.
In the case of `COc1ccc2c3c([nH]c(=O)c2c1C(=O)O)-c1ccccc1CC3`, the GI50 in the assay on SK-MEL-28 was > 100 µM (inactive); in the assay on OVCAR-3, > 100 µM (inactive); in the assay with SN12C, > 100 µM (inactive); with RXF 393, > 100 µM (inactive); in the assay on SNB-78, 79.1 µM (inactive); in the assay on HL-60 it was > 100 µM (inactive). In addition, the GI50 with UO-31, in the assay on SK-OV-3, with COLO 205, in the assay on DMS-114, in the assay with DMS-273 and in the assay on SR was > 100 µM (inactive) each time. Moreover, the GI50 in the assay with ACHN is > 100 µM (inactive).
In the case of `COc1ccc2c(c1)CCCC1C3=NCCC3(C)CSC21` (stereo not drawn), the GI50 with SK-MEL-28 is 36.2 µM (inactive); with OVCAR-3 it was 97.3 µM (inactive); in the assay on SN12C it was > 100 µM (inactive); in the assay with RXF 393, 95.5 µM (inactive); in the assay on SNB-78, > 100 µM (inactive); in the assay with M19-MEL it was 72.1 µM (inactive). Besides, the GI50 was 17.1 µM (inactive) with HL-60; > 100 µM (inactive) in the assay on SK-OV-3; 52.6 µM (inactive) with COLO 205; 37.8 µM (inactive) with DMS-114; 36.6 µM (inactive) with DMS-273.
For the compound `CC(C)c1ccc(/C=C/c2cc(C(=O)NNC(=O)NC3CCCCC3)nc(S)n2)cc1`, the GI50 in the assay on SK-MEL-28, in the assay on OVCAR-3, in the assay with SN12C, in the assay on RXF 393, with SNB-78 and in the assay with M19-MEL was > 100 µM (inactive) each time. Besides, the GI50 in the assay with UO-31, in the assay on SK-OV-3, in the assay with COLO 205, in the assay on DMS-114, in the assay on DMS-273 and with ACHN was > 100 µM (inactive) each time.
As to `CCC1(Br)C(=O)NC(=O)N(C2CC(O)C(CO)O2)C1N=[N+]=[N-]` (stereo not drawn), the GI50 in the assay on SK-MEL-28 is > 100 µM (inactive); in the assay with OVCAR-3 it was > 100 µM (inactive); with SN12C, > 100 µM (inactive); with RXF 393, 66.7 µM (inactive); in the assay with SNB-78 it was > 100 µM (inactive); in the assay on M19-MEL, > 100 µM (inactive). Also, the GI50 in the assay on HL-60 was > 100 µM (inactive); in the assay on UO-31, > 100 µM (inactive); with SK-OV-3, > 100 µM (inactive); in the assay on COLO 205, > 100 µM (inactive); with DMS-114, 72.1 µM (inactive); in the assay on DMS-273, > 100 µM (inactive). In addition, the GI50 with ACHN was > 100 µM (inactive).
For `CC[P+]1(CC)CCCC1`, the GI50 in the assay on SK-MEL-28, with OVCAR-3, in the assay with SN12C, in the assay on RXF 393, in the assay on SNB-78 and in the assay on M19-MEL was > 100 µM (inactive) throughout. The GI50 in the assay on UO-31, in the assay with SK-OV-3, in the assay on COLO 205, in the assay on DMS-114, with DMS-273 and in the assay with ACHN was > 100 µM (inactive) each time.
For the compound `NC(=O)C(=Cc1ccc(C(O)P(=O)(O)O)cc1)C(N)=O` (stereo not drawn), the GI50 in the assay on SK-MEL-28, with OVCAR-3, with SN12C, with RXF 393, in the assay on SNB-78 and in the assay on M19-MEL was > 100 µM (inactive) in each case. For the same compound, the GI50 in the assay with UO-31, in the assay on SK-OV-3, in the assay on COLO 205, in the assay with DMS-114, with DMS-273 and with ACHN was > 100 µM (inactive) in each case.
